Results taken from patent publication EP4043444A1, “SUBSTITUTED ISOXAZOLINE DERIVATIVES” (priority 2021, dated 2022).
Read-outs that look alike come from different tables or passages of the source.

Experiments:
Type in all cases: in vivo
[1] = system: Boll weevil (Anthonomus grandis); assay: Boll weevil control, 96-well microtiter plates with insect diet and eggs; conditions: Anthonomus grandis, 120 h, read-out: mortality (Egg and larval mortality)
Experimental: For evaluating control of boll weevil, the test unit consisted of 96-well-microtiter plates containing an insect diet and 5-10 A. grandis eggs.
The compounds were formulated using a solution containing 75% v/v water and 25% v/v DMSO. Different concentrations of formulated compounds were sprayed onto the insect diet at 5µl, using a custom-built micro atomizer, at two replications.
After application, microtiter plates were incubated at about 25 + 1°C and about 75 + 5 % relative humidity for 5 days. Egg and larval mortality were then visually assessed.

[2] = system: Greenhouse Whitefly (Trialeurodes vaporarirorum); assay: Greenhouse Whitefly control, 96-well microtiter plates with eggplant leaf disk and eggs; conditions: foliar, 144 h, read-out: mortality (Mortality of hatched crawlers)
Experimental: For evaluating control of Greenhouse Whitefly, the test unit consisted of 96-well-microtiter plates containing a leaf disk of eggplant leaf disk with Whitefly eggs. The compounds or mixtures were formulated using a solution containing 75% water and 25% DMSO. Different concentrations of formulated were sprayed onto the […] at 2.5µl, using a custom-built micro atomizer, at two replications. After application, microtiter plates were incubated at 23 + 1°C, 65 + 5% RH for 6 days. Mortality of hatched crawlers was then visually assessed.

[3] = system: Green Peach Aphid (Myzus persicae) (mixed life stages); assay: Green Peach Aphid control through systemic means, artificial diet under artificial membrane; conditions: Myzus persicae, 72 h, read-out: mortality (Aphid mortality)
From the text: For evaluating control of Green Peach Aphid through systemic means the test unit consisted of 96-well-microtiter plates containing liquid artificial diet under an artificial membrane. The compounds were formulated using a solution containing 75% v/v water and 25% v/v DMSO. Different concentrations of formulated compounds were pipetted into the aphid diet, using a custom-built pipette, at two replications. After application, 5 - 8 adult aphids were placed on the artificial membrane inside the microtiter plate wells. The aphids were then allowed to suck on the treated aphid diet and incubated at about 23 + 1°C and about 50 + 5 % relative humidity for 3 days. Aphid mortality and fecundity was then visually assessed.

[4] = system: Tobacco Budworm (Heliothis virescens); assay: Tobacco Budworm control, 96-well microtiter plates with insect diet and eggs; conditions: Heliothis virescens, 120 h, read-out: mortality (Egg and larval mortality)
Experimental: For evaluating control of Tobacco Budworm, the test unit consisted of 96-well-microtiter plates containing an insect diet and 15-25 H. virescens eggs. The compounds were formulated using a solution containing 75% v/v water and 25% v/v DMSO. Different concentrations of formulated compounds were sprayed onto the insect diet at 10µl, using a custom-built micro atomizer, at two replications. After application, microtiter plates were incubated at about 28 + 1°C and about 80 + 5 % relative humidity for 5 days. Egg and larval mortality was then visually assessed.

[5] = system: Yellow Fever Mosquito (Aedes aegypti); assay: whole plant or invertebrate; conditions: 48 h, 2 days, in comparison with untreated controls, read-out: mortality (Larval mortality)
Experimental: For evaluating control of Yellow Fever Mosquito the test unit consisted of 96-well-microtiter plates containing 200µl of tap water per well and 5-15 freshly hatched A. aegypti larvae. The active compounds were formulated using a solution containing 75% (v/v) water and 25% (v/v) DMSO. Different concentrations of formulated compounds or mixtures were sprayed onto the insect diet at 2.5µl, using a custom-built micro atomizer, at two replications.
After application, microtiter plates were incubated at 28 + 1°C, 80 + 5 % RH for 2 days. Larval mortality was then visually assessed.

[6] = 2500ppm, sprayed onto insect diet, 5 days, in comparison with untreated controls

Measured: mortality at 2500 ppm

O=C(Nc1ccc(F)cc1F)c1cc(NC2=NOC(c3cccc(C(F)(F)F)c3)(C(F)(F)F)C2)ccc1Cl (stereo not drawn) [I-20, 2-chloro-N-(2,4-difluorophenyl)-5-[[5-(trifluoromethyl)-5-[3-(trifluoromethyl)phenyl]-4H-isoxazol-3-yl]amino]benzamide]
≥ 75%: [1] | [2] | [3] | [4]; [6]

O=C(NC1C[S+]([O-])C1)c1cc(NC2=NOC(c3cc(Cl)c(F)c(Cl)c3)(C(F)(F)F)C2)ccc1Cl (stereo not drawn) [I-96, 2-chloro-5-[[5-(3,5-dichloro-4-fluoro-phenyl)-5-(trifluoromethyl)-4H-isoxazol-3-yl]amino]-N-(1-oxothietan-3-yl)benzamide]
≥ 75%: [1] | [3] | [4] | [5]

O=C(NC1CN(S(=O)(=O)C(F)F)C1)c1cc(NC2=NOC(c3cc(Cl)c(F)c(Cl)c3)(C(F)(F)F)C2)ccc1Cl (stereo not drawn) [I-98, 2-chloro-5-[[5-(3,5-dichloro-4-fluoro-phenyl)-5-(trifluoromethyl)-4H-isoxazol-3-yl]amino]-N-[1-(difluoromethylsulfonyl)azetidin-3-yl]benzamide]
≥ 75%: [1] | [3] | [4] | [5]

O=C(N[C@@H]1CON(CC(F)(F)F)C1=O)c1cc(NC2=NOC(c3cc(Cl)c(F)c(Cl)c3)(C(F)(F)F)C2)ccc1Cl (stereo partly drawn) [I-119, 2-chloro-5-[[5-(3,5-dichloro-4-fluoro-phenyl)-5-(trifluoromethyl)-4H-isoxazol-3-yl]amino]-N-[(4R)-3-oxo-2-(2,2,2-trifluoroethyl)isoxazolidin-4-yl]benzamide]
≥ 75%: [1] | [3] | [4] | [5]

N#CC1(NC(=O)c2cc(NC3=NOC(c4cc(Cl)cc(Cl)c4)(C(F)(F)F)C3)ccc2OC(F)(F)F)CC1 (stereo not drawn) [I-150]
≥ 75%: [1] | [3] | [4]; [6] | [5]

O=C(Nc1ccc(F)cc1F)c1cc(NC2=NOC(c3cc(Cl)cc(Cl)c3)(C(F)(F)F)C2)ccc1F (stereo not drawn) [I-154]
≥ 75%: [1] | [3] | [4]; [6] | [5]

O=C(Nc1ccc(F)cc1F)c1cc(NC2=NOC(c3cc(Cl)cc(Cl)c3)(C(F)(F)F)C2)ccc1OC(F)F (stereo not drawn) [I-157]
≥ 75%: [1] | [3] | [4]; [6] | [5]

O=C(Nc1ccc(F)cc1F)c1cc(NC2=NOC(c3cc(Cl)cc(Cl)c3)(C(F)(F)F)C2)ccc1C(F)(F)F (stereo not drawn) [I-158]
≥ 75%: [1] | [3] | [4]; [6] | [5]

CCN1OC[C@@H](NC(=O)c2cc(NC3=NOC(c4cc(Cl)cc(Cl)c4)(C(F)(F)F)C3)ccc2F)C1=O (stereo partly drawn) [I-162]
≥ 75%: [1] | [3] | [4]; [6] | [5]

CCN1OC[C@@H](NC(=O)c2cc(NC3=NOC(c4cc(Cl)cc(Cl)c4)(C(F)(F)F)C3)ccc2C)C1=O (stereo partly drawn) [I-163]
≥ 75%: [1] | [3] | [4]; [6] | [5]

CCN1OC[C@@H](NC(=O)c2cc(NC3=NOC(c4cc(Cl)cc(Cl)c4)(C(F)(F)F)C3)ccc2C(F)(F)F)C1=O (stereo partly drawn) [I-166]
≥ 75%: [1] | [3] | [4]; [6] | [5]

Cc1ccc(NC2=NOC(c3cc(Cl)cc(Cl)c3)(C(F)(F)F)C2)cc1C(=O)NC1CC1 (stereo not drawn) [I-169]
≥ 75%: [1] | [3] | [4]; [6] | [5]

O=C(NC1CC1)c1cc(NC2=NOC(c3cc(Cl)cc(Cl)c3)(C(F)(F)F)C2)ccc1OC(F)(F)F (stereo not drawn) [I-172]
≥ 75%: [1] | [3] | [4]; [6] | [5]

O=C(NCC(F)(F)F)c1cc(NC2=NOC(c3cc(Cl)cc(Cl)c3)(C(F)(F)F)C2)ccc1OC(F)F (stereo not drawn) [I-178]
≥ 75%: [1] | [3] | [4]; [6] | [5]

O=C(NCC(F)(F)F)c1cc(NC2=NOC(c3cc(Cl)cc(Cl)c3)(C(F)(F)F)C2)ccc1OC(F)(F)F (stereo not drawn) [I-179]
≥ 75%: [1] | [3] | [4]; [6] | [5]
